# Where a name gives a salt, the structure may show the parent alone.
# Legend:
# Acute toxicity = conditions: mouse, in vivo; DDY male mice, oral, 0.5 % methylcellulose suspension, seven days after medication, Probit method
# Procedure: Acute toxicity:- • DDY strain male mice of 5 weeks old, every 10 mice being grouped, received orally the test compound in the form of 0.5 % methylcellulose suspension at a dose from five kinds increasing with a common ratio of 1.3, and observation on the death of animals was continued. Seven days after the medication, the LD50 value was calculated from the rate of death according to the Probit method.
# Candida albicans KB-8 = test: Antifungal activity test (in vivo), Candida albicans infection in mice; conditions: DDY male mice infected i.v. with 10^7 cells; oral, total dose 20 mg/kg at 0, 5, 24 and 48 hours after infection; 10 days observation; number in brackets is the non-medicated control
# Procedure: Antifungal activity test (in vivo):-Candida albicans KB-8 as pre-cultured at 30°C for 4 days was suspended in physiologically saline solution, and the suspension was intravenously injected into DDY strain
# male mice of 5 weeks old, every 10 animals being grouped, through the tail vein so as to inoculate a cell number of 10^7 per animal.
# (§1) The animals were orally medicated with the test compound in the form of 0.5 % methylcellulose suspension at a total dose of 20 mg per kg of the body weight 0, 5, 24 and 48 hours after the infection, and observation was continued for 10 days after the infection. The results are shown in Table 2, wherein the numeral indicates an average number of survival days of 10 animals as one group in contrast to that of the non-medicated (control) group.
# For comparison, the following compounds were also tested: [drawing 6] [drawing 7]
# [1] = Liver weight increase test; assay type: in vivo, DDY strain male mice; conditions: mice infected with Candida albicans KB-8, survived animals
# From the text: Liver weight increase test:- • Candida albicans KB-8 was intraveously injected into DDY strain male mice of 5 weeks old, every 20 animals being grouped, at a rate of […] cells per mouse. After infection, the animals were orally medicated with the test compound in the form of 0.5 % methylcellulose suspension once a day for 20 consecutive days, during which observation on the liver weight was continued.
# The average liver weight in survived animals as calculated are shown in Table 5, from which it is understood that the liver weight is not increased when the compound of the invention is given at a daily dose of not more than 4 mg/kg, while the liver weight is increased when the compound of Japanese Patent Publn. (unexamined) No. 185571/83 is given at a daily dose of not less than 1 mg/kg.
# [2] = system: Cryptococcus neoformans MTU 13001; test: Antifungal activity test (in vivo), Cryptococcus neoformans infection in mice; conditions: DDY male mice infected i.v. with 2 x 10^6 cells, oral; for Survival rate at complete death of non-medicated group (%): total dose 20 mg/kg at 0, 5, 24 and 48 hours; for Average survival day(s): total dose 20 mg/kg, 10 days observation
# Procedure: (§2) Antifungal activity test (in vivo):- • Aspergillus fumigatus MTU 16001 or Cryptococcus neoformans MTU 13001 as pre-cultured at 30°C for 4 days was suspended in physiologically saline solution, and the suspension was intravenously injected into DDY strain male mice of 5 weeks old (body weight, 24 - 27 g), every 10 animals being grouped, through the tail vein so as to inoculate a cell number of 2 x 10^6 per animal.
# as §1, with “3,” for “2,”
# [3] = system: Aspergillus fumigatus MTU 16001; test: Antifungal activity test (in vivo), Aspergillus fumigatus infection in mice; conditions: DDY male mice infected i.v. with 2 x 10^6 cells, oral; for Survival rate at complete death of non-medicated group (%): total dose 20 mg/kg at 0, 5, 24 and 48 hours; for Average survival day(s): total dose 20 mg/kg, 10 days observation
# Procedure: as §2
# as §1, with “3,” for “2,”
# [4] = dose 0.5 mg/kg p.o. once a day for 20 consecutive days
# [5] = dose 1.0 mg/kg p.o. once a day for 20 consecutive days
# [6] = dose 2.0 mg/kg p.o. once a day for 20 consecutive days
# [7] = dose 4.0 mg/kg p.o. once a day for 20 consecutive days
# [8] = dose 8.0 mg/kg p.o. once a day for 20 consecutive days
SMILES,LD50 at 168 h (Acute toxicity),Average survival days (control) (Candida albicans KB-8),"Average weight of liver [1, 4]","Average weight of liver [1, 5]","Average weight of liver [1, 6]","Average weight of liver [1, 7]","Average weight of liver [1, 8]",Survival rate at complete death of non-medicated group (%) [2],Average survival day(s) [2],Survival rate at complete death of non-medicated group (%) [3],Average survival day(s) [3]
"CCCCC[S+]([O-])CC(O)(Cn1cncn1)c1ccc(Cl)cc1Cl (single isomer, unassigned) [1A, 2-(2,4-dichlorophenyl)-3-n-pentylsulfinyl-l-(l,2,4-triazol-1-yl)propan-2-ol oxalate]",1740 mg/kg,9.0 (1.2) days,1.20 g,1.18 g,1.15 g,1.25 g,1.60 g,–,–,–,–
"CC(C)CC[S+]([O-])CC(O)(Cn1cncn1)c1ccc(Cl)cc1Cl (single isomer, unassigned) [3A]",> 2000 mg/kg,7.7 (1.2) days,–,–,–,–,–,–,–,–,–
"CCCC(C)[S+]([O-])CC(O)(Cn1cncn1)c1ccc(Cl)cc1Cl (single isomer, unassigned) [4A]",> 1500 mg/kg,9.2 (1.2) days,–,–,–,–,–,–,–,–,–
"CCC(CC)[S+]([O-])CC(O)(Cn1cncn1)c1ccc(Cl)cc1Cl (single isomer, unassigned) [5A]",> 2000 mg/kg,8.9 (1.2) days,–,–,–,–,–,–,–,–,–
"CCC(C)(C)[S+]([O-])CC(O)(Cn1cncn1)c1ccc(Cl)cc1Cl (stereo not drawn) [Compound No. 2A, 2-(2,4-dichlorophenyl)-3-tert-pentylsulfinyl-1-(1,2,4-triazol-1-yl)propan-2-ol]",1830 mg/kg,9.7 (1.2) days,–,–,–,–,–,90%,743000 s,70%,311000 s
"CS(=O)(=O)CC(O)(Cn1cncn1)c1ccc(Cl)cc1Cl (stereo not drawn) [I, reference compound]",770 mg/kg,9.6 (1.2) days,1.30 g,1.50 g,1.70 g,1.85 g,1.90 g,80%,674000 s,60%,233000 s
"CCC(C)(C)S(=O)(=O)CC(O)(Cn1cncn1)c1ccc(Cl)cc1Cl (stereo not drawn) [II, reference compound]",–,1.4 (1.0) days,–,–,–,–,–,–,–,–,–
"CC(=O)N1CCN(c2ccc(OCC3COC(Cn4ccnc4)(c4ccc(Cl)cc4Cl)O3)cc2)CC1 (stereo not drawn) [Ketoconazole, reference compound]",1100 mg/kg,4.8 (0.8) days,–,–,–,–,–,–,–,–,–
